Read-outs that look alike come from different tables or passages of the source.
Legend:
[1] = test system: collagen-induced aggregation in rabbit platelet; experiment: Inhibition effect on collagen-induced aggregation in rabbit platelet; type: cell-based; settings: Oryctolagus cuniculus, Platelet, read-out: Inhibition effect on collagen-induced aggregation
Protocol: (§1) The platelet aggregation inhibitory effect is measured by using AG-II aggregometer (manufactured by Bryston Manufacturing Co.). The blood sample used for the test is a 1/9 (by volume) mixture of sodium citrate and whole blood collected from rabbit. Said sample is subjected to 10-minute centrifugal separation at 1,000 r.p.m. to obtain a platelet rich plasma (PRP). The thus obtained PRP is separated, and the remaining blood sample is further subjected to 15-minute centrifugal separation at 3,000 r.p.m. to obtain a platelet poor plasma (PPP).
(§2) The number of platelets in the PRP is counted by the Brecher-Clonkite Method, and the PRP is diluted with the PPP to prepare a PRP sample with platelet concentration of 300,000/mm^3 for the adenosine diphosphate (ADP)-induced aggregation test. There is also prepared a PRP sample with platelet concentration of 450,000/mm^3 for the collagen-induced aggregation test.
(§3) 0.6 Milliliter of said PRP sample is added into 0.01 ml of a solution of a test compound of a predetermined concentration and the mixture is placed in a 37° C. thermostat for one minute. Then 0.07 ml of an ADP or collagen solution is added to the mixture. Transmittance of this mixture is determined and the change of transmittance is recorded by using the aggregometer at stirrer speed of 1,100 r.p.m. […] The ADP solution is adjusted to a concentration of 7.5×10^-5 M, and the collagen solution is prepared by triturating 100 mg of collagen with 5 ml of said buffer and the supernatant is used as collagen inducer. Acetylsalicylic acid is used as control for the ADP-induced aggregation test and the collagen-induced aggregation test, respectively. The platelet aggregation inhibitory effect is measured in terms of percent inhibition with respect to the aggregation rate of the controls. The aggregation rate is calculated from the following formula:
(§4) Aggregation rate=[(c-a)/(b-a)]×100
(§5) b: transmittance of PRP containing a test compound and an aggregation inducer

[2] = test system: ADP-induced aggregation in rabbit platelet; experiment: Inhibition effect on ADP-induced aggregation in rabbit platelet; type: cell-based; settings: Oryctolagus cuniculus, Platelet; for inhibition at 100 µM: concentration of the test compound solution 10^-4 mole
Protocol: as §1, §2, §3, §4, §5

[3] = biological target: T1, cyclic AMP phosphodiesterase (Oryctolagus cuniculus, UniProt G1ST54); experiment: Obstructive action against cyclic AMP phosphodiesterase; type: biochemical; settings: rabbit platelet enzyme, 30° C., 20 minutes
T1 construct: the supernatant was collected to use it as a crude enzyme solution; from tissue; host or cells: rabbit platelets (from platelet-rich plasma)
T1 sequence (G1ST54 1-1128): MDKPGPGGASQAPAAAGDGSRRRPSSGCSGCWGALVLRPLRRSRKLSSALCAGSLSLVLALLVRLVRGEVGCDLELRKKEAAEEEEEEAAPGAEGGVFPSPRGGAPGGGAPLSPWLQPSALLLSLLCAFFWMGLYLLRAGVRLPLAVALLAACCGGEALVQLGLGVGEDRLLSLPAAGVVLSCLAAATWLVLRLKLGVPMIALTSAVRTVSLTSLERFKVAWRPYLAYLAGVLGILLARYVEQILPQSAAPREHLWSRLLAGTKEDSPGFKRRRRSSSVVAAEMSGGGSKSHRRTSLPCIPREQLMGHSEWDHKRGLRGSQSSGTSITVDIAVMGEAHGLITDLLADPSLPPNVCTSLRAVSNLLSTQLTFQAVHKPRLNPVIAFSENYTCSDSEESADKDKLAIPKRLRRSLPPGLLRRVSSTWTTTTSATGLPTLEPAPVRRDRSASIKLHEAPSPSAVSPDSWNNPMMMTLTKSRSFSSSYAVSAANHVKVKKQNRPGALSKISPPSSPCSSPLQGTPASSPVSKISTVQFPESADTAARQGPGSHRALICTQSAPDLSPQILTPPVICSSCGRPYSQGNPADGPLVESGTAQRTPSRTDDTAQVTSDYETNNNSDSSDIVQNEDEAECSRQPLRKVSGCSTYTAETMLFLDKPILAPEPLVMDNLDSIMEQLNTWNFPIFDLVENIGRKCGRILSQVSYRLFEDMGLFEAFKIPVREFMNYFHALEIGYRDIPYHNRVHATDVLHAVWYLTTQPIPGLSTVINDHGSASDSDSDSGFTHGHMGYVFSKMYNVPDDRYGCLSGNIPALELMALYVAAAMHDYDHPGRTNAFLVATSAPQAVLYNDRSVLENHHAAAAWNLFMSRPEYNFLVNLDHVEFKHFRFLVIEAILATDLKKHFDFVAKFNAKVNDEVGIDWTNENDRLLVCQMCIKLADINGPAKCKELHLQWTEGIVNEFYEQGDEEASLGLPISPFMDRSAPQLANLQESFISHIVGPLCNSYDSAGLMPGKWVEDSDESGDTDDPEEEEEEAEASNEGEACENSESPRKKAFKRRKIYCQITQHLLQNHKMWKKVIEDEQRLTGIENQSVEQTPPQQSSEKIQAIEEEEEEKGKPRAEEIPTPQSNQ
Protocol: That is, for determining the obstructive activity against cyclic AMP phosphodiesterase, 10 ml of a solution obtained by adding 1 mmol of MgCl2 into 50 mmol of tris-hydrochloric acid buffer with pH 7.4 was added to the platelets obtained by further centrifuging the above-said rabbit PRP at 3,000 r.p.m. for 10 minutes, and the suspended platelets were ground by a Teflon potter type homogenizer. This was followed by two times of freezing and thawing treatment and 300-second fracturing with 200 watt supersonic waves. After additional 60-minute centrifugation with 100,000 G, the supernatant was collected to use it as a crude enzyme solution.
10 Milliliters of this crude buffer solution was added to a 1.5×20 cm DEAE-cellulose column which has previously been buffered with 50 mM of tris-acetate buffer (pH 6.0), followed by washing and elution with 30 ml of 50 mM tris-acetate buffer, and this buffer solution was subjected to linear gradient elution with 0 to 0.5 moles of sodium acetate-tris-acetatebuffer (total amount of elute was 300 ml.). The flow rate was 0.5 ml/min, and 5 ml of each fraction was batched out. […] This fraction was used as cyclic AMP phosphodiesterase.
0.1 Milliliter of an aqueous solution of each test compound of a specified concentration was mixed with 40 mmol of tris-hydrochloric acid buffer (pH 8.0, containing 50 μg of cow serum albumin and 4 mmol of MgCl2) containing predetermined 1.0 μmol of cyclic AMP (tritium cyclic AMP), and 0.2 ml of this mixed solution was used as substrate solution.
0.2 Milliliter of the above-prepared cyclic AMP phosphodiesterase of a predetermined concentration was added to said substrate solution and the mixture was reacted at 30° C. for 20 minutes, producing tritium 5'-AMP from the tritium cyclic AMP.
The reaction system was then immersed in boiling water for 2 minutes to stop the reaction, and then this reaction solution was cooled in ice water and, for converting the produced tritium 5'-AMP into tritium adenosine, the solution was added with 0.05 ml (1 mg/ml) of snake poison as 5'-nucleotidase and reacted at 30° C. for 10 minutes. The whole amount of this reaction solution was then added to a cation exchange resin (AG 500 W×4, 200-400 meshes, manufactured by Bio-Rad Co., column size: 0.5×1.5 cm), and the produced tritium anodesine alone was allowed to combine, washed with 6 ml of distilled water and eluted with 1.5 ml of 3 N-ammonia water. The whole quantity of the elutant was added with 10 ml of a triton-toluene type scintillator and the produced tritium adenosine was measured by a liquid scintillation counter to determine the phosphodiesterase activity.
In this way, the phosphodiesterase activation value (Vs) of the test compounds of the respective concentrations was determined, and the phosphodiesterase obstruction rate (%) was determined from said activation value (Vs) and control value (Vc) (obtained from water not containing any test compound) from the following formula: [formula] Known 1-methyl-3-isobutylxanthine was used as control.

Acute Toxicity Test = settings: mouse, in vivo; male mice, oral administration
Protocol: The test compounds were administered orally to the mice and LD50 (mg/kg) of the compounds was determined.

Wistar strain male rats = experiment: Test of increasing effect of heart rate; type: in vivo, rat; settings: 30 mg/kg oral, 60 minutes after the administration
Protocol: Wistar strain male rats, having 180-230 g of body weight, were abstained from food for 24 hours, the electrocardiograms introduced from the second induction period were recorded on oscillograph. The heart rate was calculated from the electrocardiograms by observing them for 10 seconds several times. […] 60 Minutes after the administration, the heart rate was measured and increasing effect of the heart rate was calculated. Generally, an average heart rate of an usual Wistar strain male rat is about 320 beat/minute.

[4] = concentration of the test compound solution 10^-5 mole
[5] = concentration of the test compound solution 10^-6 mole
[6] = concentration of the test compound solution 10^-5 mole, read-out: Inhibition effect on ADP-induced aggregation
[7] = concentration of the test compound solution 10^-6 mole, read-out: Inhibition effect on ADP-induced aggregation
[8] = read-out: Inhibition effect on ADP-induced aggregation

| SMILES | inhibition at 10 µM [1, 4] | inhibition at 1 µM [1, 5] | inhibition at 100 µM [2] | inhibition at 10 µM [2, 6] | inhibition at 1 µM [2, 7] | IC50 [3] | LD50 (Acute Toxicity Test) | Increasing effect of heart rate (Wistar strain male rats) | inhibition at 0.1 µM [1] | inhibition at 1 µM [1] | inhibition at 10 µM [1] | inhibition at 0.1 µM [2, 8] | inhibition at 1 µM [2, 8] | inhibition at 10 µM [2, 8] |
| --- | --- | --- | --- | --- | --- | --- | --- | --- | --- | --- | --- | --- | --- | --- |
| O=C(CCCOc1ccc2[nH]c(=O)ccc2c1)N1CCN(c2ccccc2)CC1 [No. 14, 6-[3-(4-Phenyl-1-piperazinylcarbonyl)propoxy]carbostyril] | 100% | 31% | 100% | 87.7% | 15.7% | 52 nM | > 1000 mg/kg | 32 Beat/min. |  |  |  |  |  |  |
| CN(C(=O)CCCOc1ccc2[nH]c(=O)ccc2c1)C1CCCCC1 [No. 39, 6-[3-(N--Methyl-N--cyclohexylaminocarbonyl)-propoxy]carbostyril, reference compound] |  |  |  |  |  | 16 nM |  | 104 Beat/min. | 57% | 90.2% | 90.5% | 32.8% | 62.1% | 91.7% |
| CN(CC1CCCCO1)C(=O)CCCOc1ccc2[nH]c(=O)ccc2c1 (stereo not drawn) [No. 6, 6-{3-[N-Methyl-N-(2-tetrahydropyranylmethyl)aminocarbonyl]propoxy}carbostyril] | 48.1% | 3.8% | 75% | 24.6% | 14.7% | 52 nM | > 1000 mg/kg | 40 Beat/min. |  |  |  |  |  |  |
